Measured values as given in US20260297679A1, “ASSAYS FOR MONITORING INHIBITION OF RNA HELICASE DHX9” (ACCENT THERAPEUTICS, INC., priority 2023, published 2026).

System: human PBMC
Assay: circular and linear BRIP1 mRNA in fresh human PBMC (whole blood treated) by qPCR
Type: cell-based
Conditions: 24 hours, varying concentrations, FIGS. 9A-9D
Description: This study was conducted to evaluate the circular format of BRIP1 mRNA in fresh human PBMC cells by qPCR.
Human whole blood was obtained from Research Blood Components. Blood of each donor was aliquoted into vacutainer tubes containing Acid Citrate Dextrose (ACD).
Test compounds were prepared in DMSO stock solution and serially diluted. Compound (0.1% final DMSO concentration) was added to vacutainer tubes containing human whole blood. Tubes were placed in tube rotator and incubated at 37 C for 24 hours.
PBMCs were isolated from human whole blood after compound treatment by density gradient centrifugation using Ficoll-Paque Plus. RNA was extracted from PBMCs using RNeasy Plus Kits according to the manufacturer's (Qiagen) protocol. cDNA was reverse transcribed using RT^2 First Strand Kit according to the manufacturer's (Qiagen) protocol. […]
Data analysis was performed by using the QuantStudio Thermocycler software to determine threshold Ct values. ΔCt for circBRIP1 or linBRIP1 was calculated by normalizing the target gene Ct to the GAPDH housekeeping gene Ct for each sample. The inhibition activity was calculated by the following formula, whereas: […]

## Cc1cccnc1-c1csc(C(=O)Nc2cc(Cl)cc(NS(C)(=O)=O)c2)c1 [Compound 1, N-(3-chloro-5-methanesulfonamidophenyl)-4-(3-methylpyridin-2-yl)thiophene-2-carboxamide]
  human circBRIP1 in PBMCs of donor blood: induced the presence of human circBRIP1 in a dose-responsive manner
  linear BRIP1 in PBMCs of donor blood: not significantly changed
